Measurements reported in patent US20160002643A1, “Compositions And Methods To Enhance Protein Expression” (priority 2014, published 2016).
Entries after “also recorded” stand apart in the source; their conditions may differ.

Experiments:
[1] = system: induction of co-transfected genes by pLKO.1c; test: Drug inhibition experiments on pLKO.1c induction of co-transfected genes; type: cell-based; conditions: p38 inhibitor 10 μM 24 hr; Mnk1 inhibitor 2 nM 40 hr
Procedure: The Mnk1 inhibitor (Calbiochem) was added at 2 nM for 40 hr, and the p38 inhibitor (SB203580) was added at 10 μM for 24 hr prior to harvesting transfections.

[2] = system: EGFP, ER-mCherry or mCherry expression in 293 cells; test: FACS / fluorescence analysis of co-transfected EGFP and mCherry expression; type: cell-based, human; conditions: 2.5 ng EGFP expression plasmid
Procedure: The average mean fluorescence and range of duplicate transfections of 5 μg of pLKO.1c or pLKΔHP plasmids into 293 cells was determined in the presence or absence of the indicated amount of pEGFP vector relative to the pcDNA control. […]
Calcium phosphate transfection of 293 cells was performed in triplicate with 5 μg of the pTRE plasmids and 1 μg of the transactivator as indicated. All cells were incubated with 300 ng/ml DOX at 7 hr post-transfection prior to FACS analysis at 48 hr. The mean and standard deviations of triplicates are reported relative to pTRE3G-BI-mCherry in the absence of transactivator. All values (lanes 2, 3, and 4) were highly statistically significant (p<0.0001) relative to values from lane 1 as was lane 3 relative to 4.
Transfections were performed as in panel B except that samples without the pTRE plasmids were included (pcDNA3). All transfections contained 2.5 ng of the EGFP expression plasmid. Without the transactivator, pTRE-Psi-sh elevated GFP expression ˜10-fold compared to pcDNA3 (p<0.0001; lanes 5 and 1) and ˜6-fold compared to pTRE-3G-BI-mCherry (p<0.0001; lanes 5 and 3). […]

| Compound | effect of inhibitor on induction of co-transfected genes by pLKO.1c [1] | super-induction of co-transfected GFP/EGFP (in words) [2] |
| --- | --- | --- |
| C[S+]([O-])c1ccc(-c2nc(-c3ccncc3)c(-c3ccc(F)cc3)[nH]2)cc1 (stereo not drawn) [SB203580] | no effect |  |
| Nc1ncnc2n[nH]c(Nc3ccc(F)cc3)c12 [CGP57380] | no observable effect |  |
| pMT2: adenoviral gene containing plasmid on a pBR322 backbone expressing Ad VA-RNA I, SEQ ID NO:07 |  | showed super-induction of GFP; also recorded: comparable to super-induction of GFP by pLKO.1e |
